# Source: patent publication US10251849B2, “Sublingual compositions including epinephrine nanoparticles” (NOVA SOUTHEASTERN UNIVERSITY, priority 2012, dated 2019)
# Where a name gives a salt, the structure may show the parent alone. Read-outs that look alike come from different tables or passages of the source.
# Columns and labels:
# [1] = Experimental: Supernatant solution was withdrawn and filtered through 0.22 μm nylon syringe filters to be analyzed for the quantification of dissolved epinephrine.
# Analysis and condition were performed according to USP 26th edition, 2003 “Epinephrine Injection Monograph.”
# [2] = remark: listed apart in the source
# Experimental: Samples were prepared in triplicates for each concentration, n=3. All prepared samples were processed using LV-1 High Shear Fluid Processor “Microfluidizer” (Microfluidics, Newton, Mass.) equipped with G10Z reaction chamber under various pressures ranging from 15 to 30 KPsi for single or several passes. The microfluidizer-receiving coil was immersed in ice to reduce the heat produced during the process for heat-sensitive drugs. The particle size and potential of the produced nanosuspension were measured. The nanosuspension was centrifuged at 15,000 rpm and 15° C. for 30 minutes to collect the nanoparticles, and the solvent was then removed. The collected nanoparticles were completely dried by speed vacuum concentrator or lyophilization.
# (§1) Nanoparticle Characterization: The particle size distribution and zeta potential of the nanosuspension was measured before and after size reduction by volume and by intensity using Mastersizer (Malvern) and Zetasizer Nano-ZS90 (Malvern), respectively. The average of 3 measurements for each sample was reported.
# [3] = various concentrations
# Experimental: as §1
# [4] = UV absorptivity of oxidative products of epinephrine at 310 nm; format: physicochemical; conditions: controls, not stored, 4 mg/mL
# Experimental: The supernatant was visually inspected against white background for any discoloration (USP/NF. Official Monograph: Epinephrine Injection. 31/26 ed. Rockville, Md.: United States Pharmacopeial Convention, Inc.; 2008) and then filtered and diluted to make 4 mg/mL. […] The absorptivity of all samples and controls was calculated by dividing the absorbance by the product of the concentration of the drug (g/L) and the path length (cm) of the cell used to measure the absorbance (USP/NF. Physical Tests: Spectrophotometery and Light-Scattering (851). 31/26 ed. Rockville, Md.: United States Pharmacopeial Convention, Inc.; 2008).
# The absorptivity of oxidative products of epinephrine in the tablets from each formulation at each storage condition and in controls was statistically compared by two-way ANOVA and Tukey-Kramer tests.
compound,measurement,setting,value
"CNC[C@H](O)c1ccc(O)c(O)c1 [epinephrine bitartrate, (−)-3,4-dihydroxy-α-[(methylamino)methyl]benzyl alcohol (+)-tartrate (1:1) salt]",Amount Dissolved,[1]; solubility in acetone,31.28 µg/mL
same,Amount Dissolved,[1]; solubility in acetonitrile,15.46 µg/mL
same,Amount Dissolved,[1]; solubility in chloroform,1.87 µg/mL
same,Amount Dissolved,[1]; solubility in ethyl acetate,12.60 µg/mL
same,Amount Dissolved,[1]; solubility in hexane,0.53 µg/mL
same,Amount Dissolved,[1]; solubility in isopropyl alcohol,12.30 µg/mL
same,Amount Dissolved,[1]; solubility in methanol,209.01 µg/mL
same,Amount Dissolved,[1]; solubility in tetrahydrofuran (THF),155.18 µg/mL
same,Mean ± SD particles size,"[2]; 0 passes, before processing, n = 6","131,800 ± 10500 nm"
same,polydispersity (pdi),"[2]; 0.7 mg/ml, 1 pass at 30 KPsi",(0.257 + 0.060)
same,polydispersity (pdi),"[2]; 0.7 mg/ml, 2 passes at 30 KPsi",(0.119 ± 0.052)
same,polydispersity (pdi),"[2]; 0.7 mg/ml, 4 passes at 30 KPsi",(0.217 ± 0.035)
same,polydispersity (pdi),"[2]; 0.7 mg/ml, 5 passes at 30 KPsi",(0.170 ± 0.070)
same,polydispersity (pdi),"[2]; 0.7 mg/ml, 6 passes at 30 KPsi",(0.195 ± 0.067)
same,polydispersity (pdi),"[2]; 1.4 mg/ml, 1 pass at 30 KPsi",(0.239 + 0.044)
same,polydispersity (pdi),"[2]; 1.4 mg/ml, 2 passes at 30 KPsi",(0.158 ± 0.021)
same,polydispersity (pdi),"[2]; 1.4 mg/ml, 4 passes at 30 KPsi",(0.178 ± 0.039)
same,polydispersity (pdi),"[2]; 3.5 mg/ml, 1 pass at 30 KPsi",(0.335 + 0.112)
same,polydispersity (pdi),"[2]; 3.5 mg/ml, 2 passes at 30 KPsi",(0.576 ± 0.080)
same,polydispersity (pdi),"[2]; 4.5 mg/ml, 1 pass at 30 KPsi",(0.321 + 0.060)
same,polydispersity (pdi),"[2]; 4.5 mg/ml, 2 passes at 30 KPsi",(0.315 ± 0.055)
same,particle size before size reduction,[2]; as stated in summary text,150.7±5 μm
same,10th percentile (Dv0.1),"[2]; before processing, n = 6",39.8 ± 3.0 μm
same,90th percentile (Dv0.9),"[2]; before processing, n = 6",254.8 ± 20.1
same,median (Dv0.5),"[2]; before processing, n = 6",113.6 ± 9.1 μm
same,color of the fabricated nanosuspension,[3],no change in color
same,Absorptivity of Oxidative Products of Epinephrine (Mean ± SD),[4],0.001 ± 0.000
"CNC[C@H](O)c1ccc(O)c(O)c1 [Epinephrine Base, epinephrine]",Amount Dissolved,[1]; solubility in water,53.37 µg/mL
